# Target: T1, human 5HT2c receptor (VSV isoform) (Homo sapiens, UniProt P28335, I156V/I160V/N158S)
# T1 construct: expressed in transfected cells; host or cells: HEK 293 EBNA, stably transfected
# T1 sequence (P28335 33-458 I156V/N158S/I160V): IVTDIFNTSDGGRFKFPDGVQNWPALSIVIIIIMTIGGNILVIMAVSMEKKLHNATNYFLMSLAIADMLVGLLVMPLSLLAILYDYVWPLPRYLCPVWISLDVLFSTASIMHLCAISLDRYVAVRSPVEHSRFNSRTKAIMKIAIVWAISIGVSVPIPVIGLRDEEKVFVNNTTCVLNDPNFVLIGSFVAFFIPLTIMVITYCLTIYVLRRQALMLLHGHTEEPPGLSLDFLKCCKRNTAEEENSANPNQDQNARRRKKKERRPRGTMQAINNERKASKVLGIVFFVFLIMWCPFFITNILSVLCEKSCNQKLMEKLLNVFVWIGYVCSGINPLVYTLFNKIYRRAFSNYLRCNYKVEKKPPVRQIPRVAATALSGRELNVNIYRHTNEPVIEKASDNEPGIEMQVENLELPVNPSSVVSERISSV
# Assay: cell-based
row,SMILES,EC50
1,"CCn1ccc2sc3c(c21)CCNCC3 [Example 1, 3,4,5,6,7,8-Hexahydro-9-thia-3,6-diaza-cyclopenta[a]alazulene]",< 0.01 µM
2,"c1ccc(Cn2ccc3sc4c(c32)CCNCC4)cc1 [Example 4, 3-Benzyl-3,4,5,6,7,8-hexahydro-9-thia-3,6-diaza-cyclopenta[a]azulene]",< 0.01 µM
3,"Clc1ccc(-n2ccc3sc4c(c32)CCNCC4)cc1 [Example 5, 3-(4-Chloro-phenyl)-3,4,5,6,7,8-hexahydro-9-thia-3,6-diaza-cyclopenta[a]azulene]",< 1 µM
4,"Cc1ccccc1Cn1ccc2sc3c(c21)CCNCC3 [Example 6, 3-(2-Methyl-benzyl)-3,4,5,6,7,8-hexahydro-9-thia-3,6-diaza-cyclopenta[a]azulene]",< 0.01 µM
5,"Cc1cccc(Cn2ccc3sc4c(c32)CCNCC4)c1 [Example 7, 3-(3-Methyl-benzyl)-3,4,5,6,7,8-hexahydro-9-thia-3,6-diaza-cyclopenta[a]azulene]",< 0.01 µM
6,"Cc1ccc(Cn2ccc3sc4c(c32)CCNCC4)cc1 [Example 8, 3-(4-Methyl-benzyl)-3,4,5,6,7,8-hexahydro-9-thia-3,6-diaza-cyclopenta[a]azulene]",< 0.01 µM
7,Clc1cccc(Cn2ccc3sc4c(c32)CCNCC4)c1 [Example 10],< 0.01 µM
8,Clc1ccc(Cn2ccc3sc4c(c32)CCNCC4)cc1 [Example 11],< 0.01 µM
9,"Cc1ccc(-n2ccc3sc4c(c32)CCNCC4)cc1 [Example 13, 3-p-Tolyl-3,4,5,6,7,8-hexahydro-9-thia-3,6-diaza-cyclopenta[a]azulene]",< 0.1 µM
10,"COc1ccc(-n2ccc3sc4c(c32)CCNCC4)cc1 [Example 14, 3-(4-Methoxy-phenyl)-3,4,5,6,7,8-hexahydro-9-thia-3,6-diaza-cyclopenta[a]azulene]",< 0.1 µM
11,"Cc1cccc(-n2ccc3sc4c(c32)CCNCC4)c1 [Example 15, 3-m-Tolyl-3,4,5,6,7,8-hexahydro-9-thia-3,6-diaza-cyclopenta[a]azulene]",< 0.1 µM
12,"COc1cccc(-n2ccc3sc4c(c32)CCNCC4)c1 [Example 16, 3-(3-Methoxy-phenyl)-3,4,5,6,7,8-hexahydro-9-thia-3,6-diaza-cyclopenta[a]azulene]",< 1 µM
13,"Clc1cccc(-n2ccc3sc4c(c32)CCNCC4)c1 [Example 17, 3-(3-Chloro-phenyl)-3,4,5,6,7,8-hexahydro-9-thia-3,6-diaza-cyclopenta[a]azulene]",< 0.1 µM
14,"COc1cccc(Cn2ccc3sc4c(c32)CCNCC4)c1 [Example 18, 3-(3-Methoxy-benzyl)-3,4,5,6,7,8-hexahydro-9-thia-3,6-diaza-cyclopenta[a]azulene]",< 0.01 µM
15,"COc1ccc(Cn2ccc3sc4c(c32)CCNCC4)cc1 [Example 19, 3-(4-Methoxy-benzyl)-3,4,5,6,7,8-hexahydro-9-thia-3,6-diaza-cyclopenta[a]azulene]",< 0.1 µM
16,"c1cn(CC2CCCCC2)c2c3c(sc12)CCNCC3 [Example 20, 3-Cyclohexylmethyl-3,4,5,6,7,8-hexahydro-9-thia-3,6-diaza-cyclopenta[a]azulene]",< 0.1 µM
17,"c1ccc2c(Cn3ccc4sc5c(c43)CCNCC5)cccc2c1 [Example 21, 3-Naphthalen-1-ylmethyl-3,4,5,6,7,8-hexahydro-9-thia-3,6-diaza-cyclopenta[a]azulene]",< 0.01 µM
18,"Clc1cccc(Cn2ccc3sc4c(c32)CCNCC4)c1Cl [Example 22, 3-(2,3-Dichloro-benzyl)-3,4,5,6,7,8-hexahydro-9-thia-3,6-diaza-cyclopenta[a]azulene]",< 0.01 µM
19,"Clc1ccc(Cn2ccc3sc4c(c32)CCNCC4)cc1Cl [Example 23, 3-(3,4-Dichloro-benzyl)-3,4,5,6,7,8-hexahydro-9-thia-3,6-diaza-cyclopenta[a]azulene]",< 0.01 µM
20,"c1cnc2c(Cn3ccc4sc5c(c43)CCNCC5)cccc2c1 [Example 24, 3-Quinolin-8-ylmethyl-3,4,5,6,7,8-hexahydro-9-thia-3,6-diaza-cyclopenta[a]azulene]",< 0.1 µM
21,"c1cc(Cn2ccc3sc4c(c32)CCNCC4)c2ccncc2c1 [Example 25, 3-Isoquinolin-5-ylmethyl-3,4,5,6,7,8-hexahydro-9-thia-3,6-diaza-cyclopenta[a]azulene]",< 0.01 µM
22,"c1ccc2c(Cn3ccc4sc5c(c43)CCNCC5)nccc2c1 [Example 26, 3-Isoquinolin-1-ylmethyl-3,4,5,6,7,8-hexahydro-9-thia-3,6-diaza-cyclopenta[a]azulene]",< 0.01 µM
